Experimental data taken from US8003688B2, “Method of treating symptoms of common cold, allergic rhinitis and infections relating to the respiratory tract” (ImmuPharm Aps, priority 2000, dated 2011).

Columns and labels:
WISH cells = test: Toxicity to WISH cells; type: cell-based
Method: (§1) An experiment similar to Example 3 was carried out in which various, but constant concentrations of either Troxerutin or Veneruton or other relevant derivatives were added together with the 2-fold dilutions of interferon to WISH cells. A typical example from this series of experiments yielded no potentiation of the interferon system, (<1%) at all at Troxerutin levels below 2.5 mg/ml. Troxerutin concentrations higher than 2.5 mg/ml are toxic to the cells.

[1] = system: Rhino Virus (1A, 15 or 39); test: Potentiation of interferon antiviral activity vs. rhino virus in WISH cells; type: cell-based, rhinovirus; conditions: Troxerutin levels below 2.5 mg/ml added with 2-fold dilutions of interferon
Method: 3.000 WISH cells were seeded in a microtray and on the following morning, the medium was replaced with 2-fold dilutions (from a 0-30 units/ml stock solution) of HuIFN-α-2b (Intron A) in fresh medium comprising 2% serum. After incubation overnight, the medium was replaced with fresh medium comprising challenge virus and incubated at 33° C., 5% CO2 for 3-5 days and processed further as described in Example 2.
as §1

[2] = system: rhinovirus (1A, 15 or 39); test: Antiviral activity against rhinovirus in WISH cells measured via the MTS-system; type: cell-based; conditions: challenge virus, MTS read-out, Quercetin at levels not toxic to the cells
Method: Rhinovirus 1A, rhinovirus 15 and rhinovirus 39 were titrated according to the tetra zolium salt (MTS)-method (Berg et al., 1989; Berg and Owen, 2001a, Hansen et al., 1989). WISH cells were seeded in a micro tray at 3000 cells per well and incubated at 37° C., 5% CO2 overnight; the following morning the medium Was replaced with 10-fold dilutions of either rhinovirus 1A, rhinovirus 15 or rhinovirus 39, respectively, in fresh medium and the trays were incubated 4-5 days at 33° C.; a microscopical examination confirmed that the CytoPathogenic Effect (CPE) was fully developed (CPE equal to 100%). […] To quantitate the CPE in terms of % destruction, MTS (Berg and Owen, 2001a) was added to all cultures and after 3 h incubation at 37° C. (without CO2) the trays were read in a scanner as previuosly described (Berg et al, 1989, Hansen et al., 1989). […]
WISH cells were seeded in wells in a microtray and incubated for 24 h at 34° C., 5% CO2; the medium was replaced with fresh medium comprising 2-fold dilutions of ZnGluconate (diluted 1:10 from a 1% stock dilutions) and incubated further for […] at 33° C., 5% CO2; on the following day challenge virus was added and after 3-5 days at 33° C., 5% , CO2, MTS was added and the microtray was measured in an OD-scanner (Berg et al., 1989; Hansen et al., 1989). […]

Row | SMILES | concentrations toxic to the cells (WISH cells) | potentiation of the interferon system [1] [%] | protection against rhinovirus [2] [%]
1 | C[C@@H]1O[C@@H](OC[C@H]2O[C@@H](Oc3c(-c4ccc(OCCO)c(OCCO)c4)oc4cc(OCCO)cc(O)c4c3=O)[C@H](O)[C@@H](O)[C@@H]2O)[C@H](O)[C@H](O)[C@H]1O [Troxerutin, troxerutin] | higher than 2.5 mg/ml | < 1 | 
2 | O=C([O-])[C@H](O)[C@@H](O)[C@H](O)[C@H](O)CO.O=C([O-])[C@H](O)[C@@H](O)[C@H](O)[C@H](O)CO.[Zn+2] [ZnGluconate] |  |  | < 2
